Laboratory results from BigSolDB 2.1.

N#CN=C(N)N
solubility (mole fraction)
Details | 283.15 K | 288.15 K | 293.15 K | 298.15 K | 303.15 K | 308.15 K | 313.15 K | 318.15 K | 323.15 K
in DMF | 0.239 | 0.248 | 0.258 | 0.259 | 0.262 | 0.265 | 0.274 | 0.276 | 0.284
in water | 0.00474 | 0.00594 | 0.00693 | 0.00897 | 0.0106 | 0.0134 | 0.0173 | 0.021 | 0.0244
